One test concerns A549. The experiment in a line: Antiproliferative activity against human A549 cells harboring wild type EGFR/k-Ras mutation after 72 hrs by MTT assay. The class given is functional, cell-based. As to conditions: A549, 72 h. Background: Formazan colour is commonly taken as a measure of viable cells.
The subject of the next test is NCI-H1975. The experiment in a line: cells. The test is classed as functional, cell-based. As to conditions: Homo sapiens, NCI-H1975, 72 h.
The next test deals with HT-29. The experiment in a line: cells. The test is classed as functional, cell-based. The conditions noted are these: Homo sapiens, HT-29, 72 h.
In test [1] the target is Epidermal growth factor receptor (Homo sapiens, UniProt P00533, L858R/T790M). The class given is protein assay.
Sequence of Epidermal growth factor receptor (Homo sapiens, UniProt P00533, L858R/T790M) (P00533 25-1210 T790M/L858R limits assumed): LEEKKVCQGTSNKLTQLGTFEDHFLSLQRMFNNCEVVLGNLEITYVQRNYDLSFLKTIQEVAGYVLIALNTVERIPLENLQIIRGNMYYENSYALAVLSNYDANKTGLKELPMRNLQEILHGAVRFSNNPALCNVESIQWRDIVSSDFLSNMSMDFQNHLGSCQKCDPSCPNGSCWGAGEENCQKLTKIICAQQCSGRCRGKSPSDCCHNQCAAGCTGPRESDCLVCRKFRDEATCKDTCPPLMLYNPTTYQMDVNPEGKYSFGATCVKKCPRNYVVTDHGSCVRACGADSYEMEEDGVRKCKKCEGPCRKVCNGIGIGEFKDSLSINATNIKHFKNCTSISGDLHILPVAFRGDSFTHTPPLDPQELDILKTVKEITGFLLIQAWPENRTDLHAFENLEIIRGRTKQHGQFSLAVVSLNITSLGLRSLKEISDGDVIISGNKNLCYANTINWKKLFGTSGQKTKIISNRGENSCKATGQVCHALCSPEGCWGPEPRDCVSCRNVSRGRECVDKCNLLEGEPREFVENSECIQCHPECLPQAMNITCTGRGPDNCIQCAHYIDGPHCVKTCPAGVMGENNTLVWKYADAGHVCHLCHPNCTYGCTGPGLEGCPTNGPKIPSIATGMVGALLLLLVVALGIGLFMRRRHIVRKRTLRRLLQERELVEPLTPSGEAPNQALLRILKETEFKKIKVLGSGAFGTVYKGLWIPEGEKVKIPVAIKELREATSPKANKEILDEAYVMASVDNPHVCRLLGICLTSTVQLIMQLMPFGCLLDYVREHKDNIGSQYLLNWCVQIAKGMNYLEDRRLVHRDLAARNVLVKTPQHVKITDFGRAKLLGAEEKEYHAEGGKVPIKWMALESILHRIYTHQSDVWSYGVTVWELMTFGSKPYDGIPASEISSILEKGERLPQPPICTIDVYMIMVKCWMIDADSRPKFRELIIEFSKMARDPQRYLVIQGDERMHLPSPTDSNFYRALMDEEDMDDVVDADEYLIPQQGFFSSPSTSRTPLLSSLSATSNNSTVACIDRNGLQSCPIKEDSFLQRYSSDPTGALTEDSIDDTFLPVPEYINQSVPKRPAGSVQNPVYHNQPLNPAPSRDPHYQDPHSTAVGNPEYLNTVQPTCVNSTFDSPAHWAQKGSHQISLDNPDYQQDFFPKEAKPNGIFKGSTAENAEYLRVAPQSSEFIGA
The target of test [2] is Epidermal growth factor receptor (Homo sapiens, UniProt P00533, DELE746/T790M). The class given is protein assay.
Sequence of Epidermal growth factor receptor (Homo sapiens, UniProt P00533, DELE746/T790M) (P00533 whole entry E746del/T790M, looked up): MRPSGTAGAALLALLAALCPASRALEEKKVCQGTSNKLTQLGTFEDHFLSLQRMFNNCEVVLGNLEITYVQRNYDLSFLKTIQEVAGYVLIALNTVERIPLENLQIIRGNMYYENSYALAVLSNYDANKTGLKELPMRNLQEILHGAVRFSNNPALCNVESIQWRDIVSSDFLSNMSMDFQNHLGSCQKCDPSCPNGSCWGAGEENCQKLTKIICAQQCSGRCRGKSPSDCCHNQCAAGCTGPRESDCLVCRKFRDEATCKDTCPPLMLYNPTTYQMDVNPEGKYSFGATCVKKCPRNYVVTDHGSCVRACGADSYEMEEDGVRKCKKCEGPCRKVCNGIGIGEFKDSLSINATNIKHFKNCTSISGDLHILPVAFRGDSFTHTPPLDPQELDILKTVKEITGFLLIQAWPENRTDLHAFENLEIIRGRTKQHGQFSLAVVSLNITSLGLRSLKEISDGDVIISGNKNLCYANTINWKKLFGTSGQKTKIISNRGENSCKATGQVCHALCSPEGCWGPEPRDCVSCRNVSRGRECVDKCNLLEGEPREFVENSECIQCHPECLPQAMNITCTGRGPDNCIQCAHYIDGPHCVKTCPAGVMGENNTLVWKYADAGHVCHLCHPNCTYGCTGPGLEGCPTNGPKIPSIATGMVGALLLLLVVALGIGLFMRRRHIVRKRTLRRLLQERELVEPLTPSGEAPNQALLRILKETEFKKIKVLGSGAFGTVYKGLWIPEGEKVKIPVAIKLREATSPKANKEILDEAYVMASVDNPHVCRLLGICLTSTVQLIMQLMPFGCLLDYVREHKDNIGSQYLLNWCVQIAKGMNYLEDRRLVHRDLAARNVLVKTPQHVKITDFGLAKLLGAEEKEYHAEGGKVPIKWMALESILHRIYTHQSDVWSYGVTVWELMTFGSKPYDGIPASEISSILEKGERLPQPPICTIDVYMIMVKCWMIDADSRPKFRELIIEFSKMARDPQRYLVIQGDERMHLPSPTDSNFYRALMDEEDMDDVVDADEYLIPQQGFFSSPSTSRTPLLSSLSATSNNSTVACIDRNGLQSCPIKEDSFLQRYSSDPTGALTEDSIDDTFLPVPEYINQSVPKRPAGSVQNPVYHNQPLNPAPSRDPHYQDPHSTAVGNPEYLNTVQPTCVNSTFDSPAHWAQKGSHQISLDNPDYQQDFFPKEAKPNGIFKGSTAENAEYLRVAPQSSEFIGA
Test [3] addresses Epidermal growth factor receptor (Homo sapiens, UniProt P00533, T790M). The test is classed as protein assay.
Test [4] deals with Epidermal growth factor receptor (Homo sapiens, UniProt P00533). The experiment in a line: Inhibition of wild type recombinant human EGFR preincubated for 10 mins followed by FAM-labeled peptide/ATP addition measured after 1 hr by mobility shift assay.
Sequence of Epidermal growth factor receptor (Homo sapiens, UniProt P00533) (P00533 whole entry): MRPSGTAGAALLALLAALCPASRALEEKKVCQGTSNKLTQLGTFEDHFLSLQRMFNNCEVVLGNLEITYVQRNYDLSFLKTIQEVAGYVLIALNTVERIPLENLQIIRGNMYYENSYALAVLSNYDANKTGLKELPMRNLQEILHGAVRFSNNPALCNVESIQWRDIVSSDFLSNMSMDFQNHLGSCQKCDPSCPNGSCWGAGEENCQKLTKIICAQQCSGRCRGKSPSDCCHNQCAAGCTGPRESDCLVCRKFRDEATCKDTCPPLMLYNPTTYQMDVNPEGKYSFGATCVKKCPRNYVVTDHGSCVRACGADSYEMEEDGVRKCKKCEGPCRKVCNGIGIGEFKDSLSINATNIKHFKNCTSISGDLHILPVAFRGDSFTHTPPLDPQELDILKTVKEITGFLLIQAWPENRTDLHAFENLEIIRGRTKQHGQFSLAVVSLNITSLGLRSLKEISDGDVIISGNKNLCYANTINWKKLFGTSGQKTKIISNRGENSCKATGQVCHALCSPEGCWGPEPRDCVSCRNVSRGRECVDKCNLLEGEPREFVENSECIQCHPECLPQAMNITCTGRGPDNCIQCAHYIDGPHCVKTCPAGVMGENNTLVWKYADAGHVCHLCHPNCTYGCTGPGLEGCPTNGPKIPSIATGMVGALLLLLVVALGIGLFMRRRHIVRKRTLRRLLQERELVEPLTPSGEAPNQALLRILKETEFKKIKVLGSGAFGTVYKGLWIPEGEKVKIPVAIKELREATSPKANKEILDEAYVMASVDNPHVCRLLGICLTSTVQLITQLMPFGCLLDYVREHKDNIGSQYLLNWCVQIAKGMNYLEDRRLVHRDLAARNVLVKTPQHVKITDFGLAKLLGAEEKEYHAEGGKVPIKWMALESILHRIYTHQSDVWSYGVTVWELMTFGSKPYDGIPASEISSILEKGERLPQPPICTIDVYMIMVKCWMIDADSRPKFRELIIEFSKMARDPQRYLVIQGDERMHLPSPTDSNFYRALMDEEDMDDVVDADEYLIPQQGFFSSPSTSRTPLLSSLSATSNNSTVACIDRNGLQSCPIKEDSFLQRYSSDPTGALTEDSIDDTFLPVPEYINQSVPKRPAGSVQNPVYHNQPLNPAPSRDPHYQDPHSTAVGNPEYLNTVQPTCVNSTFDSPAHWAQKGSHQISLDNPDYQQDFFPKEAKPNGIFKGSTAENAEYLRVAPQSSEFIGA

For 27 compounds, IC50 results are on record in ChEMBL document CHEMBL3739350, “Novel hydrazone moiety-bearing aminopyrimidines as selective inhibitors of epidermal growth factor receptor T790M mutant” (Eur J Med Chem, 2015).

Sequence of Epidermal growth factor receptor (Homo sapiens, UniProt P00533, T790M) (P00533 25-1210 T790M limits assumed): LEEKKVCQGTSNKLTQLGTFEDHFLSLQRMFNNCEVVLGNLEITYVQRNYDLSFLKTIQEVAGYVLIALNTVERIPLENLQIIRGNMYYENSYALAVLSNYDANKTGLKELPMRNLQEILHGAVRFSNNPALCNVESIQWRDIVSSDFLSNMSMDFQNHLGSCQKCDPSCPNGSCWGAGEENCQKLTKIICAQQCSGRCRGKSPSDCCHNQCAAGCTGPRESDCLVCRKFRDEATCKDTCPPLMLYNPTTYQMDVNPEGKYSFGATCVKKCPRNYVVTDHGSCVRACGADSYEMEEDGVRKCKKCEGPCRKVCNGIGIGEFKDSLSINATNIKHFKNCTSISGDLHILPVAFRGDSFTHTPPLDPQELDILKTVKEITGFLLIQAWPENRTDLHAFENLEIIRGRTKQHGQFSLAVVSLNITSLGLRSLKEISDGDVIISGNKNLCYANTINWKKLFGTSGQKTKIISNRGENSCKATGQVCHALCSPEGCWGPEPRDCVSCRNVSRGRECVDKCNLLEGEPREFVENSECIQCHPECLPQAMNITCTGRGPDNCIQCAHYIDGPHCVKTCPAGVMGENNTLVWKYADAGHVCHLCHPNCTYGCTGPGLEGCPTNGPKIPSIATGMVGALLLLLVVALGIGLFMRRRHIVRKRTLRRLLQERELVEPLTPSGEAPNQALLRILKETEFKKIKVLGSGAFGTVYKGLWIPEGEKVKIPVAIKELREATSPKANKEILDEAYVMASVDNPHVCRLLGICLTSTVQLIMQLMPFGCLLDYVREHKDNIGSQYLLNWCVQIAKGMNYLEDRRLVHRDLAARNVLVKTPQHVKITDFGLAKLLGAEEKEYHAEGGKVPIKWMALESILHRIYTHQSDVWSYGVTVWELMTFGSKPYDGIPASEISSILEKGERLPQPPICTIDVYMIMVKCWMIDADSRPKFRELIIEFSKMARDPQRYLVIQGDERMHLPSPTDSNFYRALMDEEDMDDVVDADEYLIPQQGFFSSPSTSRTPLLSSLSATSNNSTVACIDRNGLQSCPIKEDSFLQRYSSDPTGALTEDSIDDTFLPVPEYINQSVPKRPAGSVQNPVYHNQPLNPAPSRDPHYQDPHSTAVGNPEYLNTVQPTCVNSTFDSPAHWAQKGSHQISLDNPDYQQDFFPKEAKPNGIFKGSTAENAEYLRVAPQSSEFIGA
Description for HT-29: Cytotoxicity against human HT-29 cells assessed as inhibition of cell proliferation after 72 hrs by MTT assay

As a reminder, the IC50 is the concentration that inhibits the measured activity by half. With `C=CC(=O)Nc1cccc(Oc2nc(Nc3ccc(N4CCN(C)CC4)cc3OC)ncc2Cl)c1`, the IC50 in the test with A549 was 1.87 µM; in the test with NCI-H1975, 0.058 µM; with HT-29 it was 2.95 µM.
The like results for `COc1ccc(/C(C)=N/Nc2ncc(Cl)c(Nc3cccc(NC(=O)/C=C/CN(C)C)c3)n2)cc1` were, in that order, 7.12 µM, 0.99 µM and 6.83 µM.
Turning to `COc1ccc(/C=N/Nc2ncc(Cl)c(Nc3cccc(NC(=O)/C=C/CN(C)C)c3)n2)cc1`, the values for the IC50 in the test on A549, in the test with NCI-H1975 and in the test with HT-29 were 6.24 µM, 1.58 µM and 4.82 µM, respectively.
Turning to `C=CC(=O)Nc1cccc(Nc2nc(N/N=C/c3ccccc3F)ncc2Cl)c1`, the IC50 was 6.06 µM with A549; 0.29 µM with NCI-H1975; 3.5 µM with HT-29; 1.51 µM in test [1]; 1.91 µM in test [2]; 4.74 µM in test [3]. Moreover, the IC50 in test [4] was more than 20 µM.
As for `C/C(=N\Nc1ncc(Cl)c(Nc2cccc(NC(=O)/C=C/CN(C)C)c2)n1)c1ccc(F)cc1`, the IC50 in the test with A549 came out at 8.96 µM; in the test with NCI-H1975, 1.16 µM; in the test on HT-29 it was 10.2 µM; in test [1], 2.35 µM; in test [4], 15.3 µM.
Take `COc1cccc(/C(C)=N/Nc2ncc(Cl)c(Nc3cccc(NC(=O)/C=C/CN(C)C)c3)n2)c1`: the IC50 in the test on A549 was 11.4 µM; in the test with NCI-H1975, 0.91 µM; with HT-29 it was 3.87 µM.
For `C=CC(=O)Nc1cccc(Nc2nc(NNC(=O)c3ccc(OC)cc3)ncc2Cl)c1`, the IC50 came to 26 µM with A549 and 8.46 µM in the test on NCI-H1975.
Consider `C=CC(=O)Nc1cccc(Nc2nc(N/N=C(\C)c3ccc(F)cc3F)ncc2Cl)c1`, for which the IC50 in the test on A549 was found to be 1.63 µM; with NCI-H1975, 0.3 µM; with HT-29, 4.36 µM; in test [1] it was 2.27 µM; in test [4], 11.8 µM.
For `C=CC(=O)Nc1cccc(Nc2nc(N/N=C(\C)c3ccc(OC)cc3)ncc2Cl)c1`, the IC50 in the test with A549 turned out to be 7.71 µM; with NCI-H1975 it was 1.06 µM; with HT-29, 4.56 µM.
The like results for `CN(C)C/C=C/C(=O)Nc1cccc(Nc2nc(N/N=C/c3ccncc3)ncc2Cl)c1` were, in that order, 47.7 µM, 4.13 µM and 25.2 µM.
The like results for `C=CC(=O)Nc1cccc(Nc2nc(N/N=C(\C)c3cccc(OC)c3)ncc2Cl)c1` were, in that order, 10.3 µM, 1.19 µM and 8.99 µM.
In the case of `C=CC(=O)Nc1cccc(Nc2nc(N/N=C/c3ccc(F)cc3)ncc2Cl)c1`, the IC50 is 10.4 µM in the test with A549; 0.43 µM in the test on NCI-H1975; 6.34 µM in the test with HT-29; 0.86 µM in test [1]; 0.57 µM in test [2]; 1.12 µM in test [3]. Besides, the IC50 in test [4] is more than 20 µM.
As for `C=CC(=O)Nc1cccc(Nc2nc(N/N=C/c3ccc(F)cc3F)ncc2Cl)c1`, the IC50 with A549 was 11.2 µM; with NCI-H1975, 0.38 µM; in the test with HT-29 it was 4.76 µM; in test [1], 11.6 µM; in test [4] it was more than 20 µM.
The matching figures for `CN(C)C/C=C/C(=O)Nc1cccc(Nc2nc(N/N=C/c3c[nH]c4ccccc34)ncc2Cl)c1`: 28.7 µM, 5.45 µM, 9.68 µM, more than 20 µM and more than 20 µM.
Consider `C=CC(=O)Nc1cccc(Nc2nc(NNC(=O)c3ccc(F)cc3)ncc2Cl)c1`, for which the values for the IC50 in the test with A549 and in the test on NCI-H1975 were 31 µM and 5.31 µM, respectively.
For `C/C(=N\Nc1ncc(Cl)c(Nc2cccc(NC(=O)/C=C/CN(C)C)c2)n1)c1ccc(F)cc1F`, the IC50 in the test with A549 worked out at 5.57 µM; in the test on NCI-H1975, 0.48 µM; with HT-29 it was 3.46 µM; in test [1], 0.72 µM; in test [2], 1.25 µM; in test [3], 0.82 µM. Also, in test [4], the 50% inhibitory concentration (IC50) is more than 20 µM.
As for `CN(C)C/C=C/C(=O)Nc1cccc(Nc2nc(N/N=C/c3cn(Cc4ccccc4)c4ccccc34)ncc2Cl)c1`, the concentration for half-maximal inhibition (IC50) in the test with A549 was 2.91 µM; with NCI-H1975, 0.26 µM; in the test with HT-29, 2.12 µM; in test [1], 0.88 µM; in test [2], 0.76 µM; in test [3], 0.79 µM. In test [4], the IC50 is more than 20 µM.
On to `C=CC(=O)Nc1cccc(Nc2nc(N/N=C(\C)c3ccc(F)cc3)ncc2Cl)c1`, for which the half-inhibitory concentration (IC50) was found to be 8.2 µM with A549; 0.39 µM with NCI-H1975; 5.05 µM in the test with HT-29; 1.68 µM in test [1]; 1.29 µM in test [2]; 2.53 µM in test [3]. Besides, in test [4], the IC50 is more than 20 µM.
As for `C/C(=N\Nc1ncc(Cl)c(Nc2cccc(NC(=O)/C=C/CN(C)C)c2)n1)c1ccccn1`, the 50% inhibitory concentration (IC50) is 0.83 µM in the test with A549; 0.077 µM in the test with NCI-H1975; 0.12 µM in the test with HT-29; 2.38 µM in test [1]; more than 20 µM in test [4].
With `C/C(=N\Nc1ncc(Cl)c(Nc2cccc(NC(=O)/C=C/CN(C)C)c2)n1)c1ccncc1`, the IC50 with A549 is 34.9 µM; with NCI-H1975 it was 6.24 µM; with HT-29, 10.9 µM.
As to `C=CC(=O)Nc1cccc(Nc2nc(N/N=C(\C)c3ccc(C)cc3)ncc2Cl)c1`, the IC50 in the test on A549 was 5.36 µM; in the test with NCI-H1975 it was 0.74 µM; with HT-29, 3.21 µM; in test [1], 5.67 µM; in test [4], more than 20 µM.
As to `C=CC(=O)Nc1cccc(Nc2nc(N/N=C(\C)c3ccncc3)ncc2Cl)c1`, the IC50 in the test on A549 is 28.7 µM; in the test on NCI-H1975 it was 3.69 µM; with HT-29 it was 12.8 µM.
The matching figures for `C=CC(=O)Nc1cccc(Nc2nc(N/N=C/c3cn(Cc4ccccc4)c4ccccc34)ncc2Cl)c1`: more than 100 µM, 1.35 µM and 11 µM.
The like results for `C/C(=N\Nc1ncc(Cl)c(Nc2cccc(NC(=O)/C=C/CN(C)C)c2)n1)c1ccc(C)cc1` were, in that order, 10.8 µM, 1.37 µM and 11.8 µM.
Take `CN(C)C/C=C/C(=O)Nc1cccc(Nc2nc(N/N=C/c3ccc(F)cc3F)ncc2Cl)c1`: the IC50 in the test with A549 is 2.17 µM; in the test with NCI-H1975 it was 0.17 µM; in the test with HT-29 it was 2.92 µM; in test [1], 2.52 µM; in test [2], 5.11 µM; in test [3], 2.51 µM. Further, the IC50 in test [4] was more than 20 µM.
Regarding `C/C(=N\Nc1ncc(Cl)c(Nc2cccc(NC(=O)/C=C/CN(C)C)c2)n1)c1cccnc1`, the concentration for half-maximal inhibition (IC50) with A549 was 17.3 µM; in the test with NCI-H1975, 2.35 µM; in the test on HT-29 it was 9.66 µM; in test [1], 4.32 µM; in test [4] it was more than 20 µM.
Regarding `Nc1cccc(Nc2nc(N/N=C/c3ccc(F)cc3)ncc2Cl)c1`, the IC50 in the test with A549 was 13.7 µM; in the test on NCI-H1975 it was 9.92 µM; with HT-29, 12.3 µM.
